# Source: PubChem BioAssay AID588805 (The Scripps Research Institute Molecular Screening Center, 2011)
# Active and inactive are the calls of the source. The rule behind the calls is not given here.
# Columns and labels:
# Test in all cases: ABHD10 inhibitor ABPP-SILAC selectivity profile – cell-based, LC-MS/MS, selectivity assay for PME-1 inhibitor project, late-stage follow-up (AID 588805)
# Bat5 = conditions: serine hydrolase panel, active compounds read low
# Abhd13 = conditions: serine hydrolase panel, active compounds read low
# Acot9 = conditions: serine hydrolase panel, active compounds read low
# Sec23ip = conditions: serine hydrolase panel, active compounds read low
# Serhl = conditions: serine hydrolase panel, active compounds read low
# Pafah1b3 = conditions: serine hydrolase panel, active compounds read low
# Qrsl1 = conditions: serine hydrolase panel, active compounds read low
# Htra2 = conditions: serine hydrolase panel, active compounds read low
# Acot7 = conditions: serine hydrolase panel, active compounds read low
# Pnpla7 = conditions: serine hydrolase panel, active compounds read low
# Ctsa = conditions: serine hydrolase panel, active compounds read low
# Fam108a = conditions: serine hydrolase panel, active compounds read low
# [1] = target: Platelet-activating factor acetylhydrolase 2, cytoplasmic (Mus musculus) (UniProt Q8VDG7); conditions: serine hydrolase panel, Pafah2, active compounds read low
# Sequence of Platelet-activating factor acetylhydrolase 2, cytoplasmic (Mus musculus) (Q8VDG7 whole entry, looked up): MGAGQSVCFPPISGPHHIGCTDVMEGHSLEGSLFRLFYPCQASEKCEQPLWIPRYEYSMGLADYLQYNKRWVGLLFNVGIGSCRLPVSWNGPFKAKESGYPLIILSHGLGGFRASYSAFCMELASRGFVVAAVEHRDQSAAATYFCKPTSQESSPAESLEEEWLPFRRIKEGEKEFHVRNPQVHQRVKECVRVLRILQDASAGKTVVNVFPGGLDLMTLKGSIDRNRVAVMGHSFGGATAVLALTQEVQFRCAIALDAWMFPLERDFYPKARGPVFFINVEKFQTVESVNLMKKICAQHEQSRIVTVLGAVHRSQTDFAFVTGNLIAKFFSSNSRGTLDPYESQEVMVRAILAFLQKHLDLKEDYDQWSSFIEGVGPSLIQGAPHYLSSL
# Fam108b1 = conditions: serine hydrolase panel, active compounds read low
# Lypla2 = conditions: serine hydrolase panel, active compounds read low
# Dpp7 = conditions: serine hydrolase panel, active compounds read low
# Abhd12 = conditions: serine hydrolase panel, active compounds read low
# Parl = conditions: serine hydrolase panel, active compounds read low
# Lipe = conditions: serine hydrolase panel, active compounds read low
# [2] = target: Prolyl endopeptidase (Mus musculus) (UniProt Q9QUR6); conditions: serine hydrolase panel, Prep, active compounds read low
# Sequence of Prolyl endopeptidase (Mus musculus) (Q9QUR6 whole entry, looked up): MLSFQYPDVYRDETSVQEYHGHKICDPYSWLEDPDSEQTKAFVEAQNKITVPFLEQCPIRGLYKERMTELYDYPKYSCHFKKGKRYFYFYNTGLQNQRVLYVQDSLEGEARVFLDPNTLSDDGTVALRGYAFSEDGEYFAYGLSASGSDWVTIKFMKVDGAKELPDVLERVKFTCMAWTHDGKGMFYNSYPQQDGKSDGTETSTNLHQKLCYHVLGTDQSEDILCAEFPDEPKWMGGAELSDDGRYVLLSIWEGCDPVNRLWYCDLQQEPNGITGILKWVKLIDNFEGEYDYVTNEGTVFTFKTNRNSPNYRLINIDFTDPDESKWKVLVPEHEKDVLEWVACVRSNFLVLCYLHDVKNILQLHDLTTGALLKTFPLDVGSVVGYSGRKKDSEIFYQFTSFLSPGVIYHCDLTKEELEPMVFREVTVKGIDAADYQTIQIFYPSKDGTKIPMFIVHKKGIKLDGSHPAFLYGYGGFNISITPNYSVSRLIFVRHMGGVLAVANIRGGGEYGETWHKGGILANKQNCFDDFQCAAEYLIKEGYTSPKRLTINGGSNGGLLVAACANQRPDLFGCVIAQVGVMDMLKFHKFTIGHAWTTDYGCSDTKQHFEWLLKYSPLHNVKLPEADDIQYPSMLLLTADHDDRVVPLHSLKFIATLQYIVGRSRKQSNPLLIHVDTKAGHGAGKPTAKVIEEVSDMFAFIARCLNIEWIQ
# Apeh = conditions: serine hydrolase panel, active compounds read low
# Pnpla6 = conditions: serine hydrolase panel, active compounds read low
# Faah = conditions: serine hydrolase panel, active compounds read low
# Pafah1b2 = conditions: serine hydrolase panel, active compounds read low
# [3] = target: Acyl-protein thioesterase 1 (Mus musculus) (UniProt P97823); conditions: serine hydrolase panel, Lypla1, active compounds read low
# Sequence of Acyl-protein thioesterase 1 (Mus musculus) (P97823 whole entry, looked up): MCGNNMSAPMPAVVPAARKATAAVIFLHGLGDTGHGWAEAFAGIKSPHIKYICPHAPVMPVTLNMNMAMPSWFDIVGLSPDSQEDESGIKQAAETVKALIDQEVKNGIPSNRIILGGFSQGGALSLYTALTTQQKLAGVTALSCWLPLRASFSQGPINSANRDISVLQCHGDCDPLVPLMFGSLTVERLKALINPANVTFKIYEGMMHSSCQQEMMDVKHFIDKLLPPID
# Ppt2 = conditions: serine hydrolase panel, active compounds read low
# Pla2g6 = conditions: serine hydrolase panel, active compounds read low
# Pnpla8 = conditions: serine hydrolase panel, active compounds read low
# [4] = target: Diacylglycerol lipase-beta (Mus musculus) (UniProt Q91WC9); conditions: serine hydrolase panel, Daglb, active compounds read low
# Sequence of Diacylglycerol lipase-beta (Mus musculus) (Q91WC9 whole entry, looked up): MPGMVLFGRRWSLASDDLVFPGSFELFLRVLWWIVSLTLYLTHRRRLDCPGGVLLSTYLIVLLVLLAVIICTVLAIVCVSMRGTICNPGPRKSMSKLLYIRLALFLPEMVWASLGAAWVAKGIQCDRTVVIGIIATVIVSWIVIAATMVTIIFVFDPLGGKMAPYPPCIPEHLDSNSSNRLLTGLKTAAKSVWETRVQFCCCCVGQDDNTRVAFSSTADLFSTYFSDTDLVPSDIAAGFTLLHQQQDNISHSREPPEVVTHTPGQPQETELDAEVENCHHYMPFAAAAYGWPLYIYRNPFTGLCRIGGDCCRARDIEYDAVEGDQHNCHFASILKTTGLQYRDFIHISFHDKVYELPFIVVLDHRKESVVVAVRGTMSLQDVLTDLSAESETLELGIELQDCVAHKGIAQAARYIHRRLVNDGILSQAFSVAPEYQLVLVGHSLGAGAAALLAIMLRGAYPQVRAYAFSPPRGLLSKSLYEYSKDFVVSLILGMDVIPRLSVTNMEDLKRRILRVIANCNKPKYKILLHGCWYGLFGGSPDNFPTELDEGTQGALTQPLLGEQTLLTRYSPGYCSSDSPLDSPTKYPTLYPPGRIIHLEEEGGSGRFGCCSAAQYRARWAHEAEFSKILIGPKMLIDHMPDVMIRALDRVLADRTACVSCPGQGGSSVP
# Fam108c1 = conditions: serine hydrolase panel, active compounds read low
# Acot2 = conditions: serine hydrolase panel, active compounds read low
# [5] = target: Palmitoyl-protein thioesterase ABHD10, mitochondrial (Mus musculus) (UniProt Q6PE15); conditions: serine hydrolase panel, active compounds read low
# Sequence of Palmitoyl-protein thioesterase ABHD10, mitochondrial (Mus musculus) (Q6PE15 whole entry, looked up): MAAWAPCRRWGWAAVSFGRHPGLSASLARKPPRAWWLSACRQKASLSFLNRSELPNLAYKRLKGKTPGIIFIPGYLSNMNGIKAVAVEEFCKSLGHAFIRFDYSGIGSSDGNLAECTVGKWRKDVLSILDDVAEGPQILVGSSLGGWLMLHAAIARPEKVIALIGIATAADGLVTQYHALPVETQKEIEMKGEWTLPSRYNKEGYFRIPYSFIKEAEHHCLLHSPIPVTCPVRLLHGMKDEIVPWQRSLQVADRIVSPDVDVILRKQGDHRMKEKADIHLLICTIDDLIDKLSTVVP
# Rbbp9 = conditions: serine hydrolase panel, active compounds read low
# Iah1 = conditions: serine hydrolase panel, active compounds read low
# Dpp9 = conditions: serine hydrolase panel, active compounds read low
# Prcp = conditions: serine hydrolase panel, active compounds read low
# Pgap1 = conditions: serine hydrolase panel, active compounds read low
# Pme1 = conditions: serine hydrolase panel, active compounds read low
# Lyplal1 = conditions: serine hydrolase panel, active compounds read low
# Pla2g15 = conditions: serine hydrolase panel, active compounds read low
# Ddhd2 = conditions: serine hydrolase panel, active compounds read low
# Prepl = conditions: serine hydrolase panel, active compounds read low
# Dpp8 = conditions: serine hydrolase panel, active compounds read low
# Esd = conditions: serine hydrolase panel, active compounds read low
# [6] = target: Monoacylglycerol lipase ABHD6 (Mus musculus) (UniProt Q8R2Y0); conditions: serine hydrolase panel, active compounds read low
# Sequence of Monoacylglycerol lipase ABHD6 (Mus musculus) (Q8R2Y0 whole entry, looked up): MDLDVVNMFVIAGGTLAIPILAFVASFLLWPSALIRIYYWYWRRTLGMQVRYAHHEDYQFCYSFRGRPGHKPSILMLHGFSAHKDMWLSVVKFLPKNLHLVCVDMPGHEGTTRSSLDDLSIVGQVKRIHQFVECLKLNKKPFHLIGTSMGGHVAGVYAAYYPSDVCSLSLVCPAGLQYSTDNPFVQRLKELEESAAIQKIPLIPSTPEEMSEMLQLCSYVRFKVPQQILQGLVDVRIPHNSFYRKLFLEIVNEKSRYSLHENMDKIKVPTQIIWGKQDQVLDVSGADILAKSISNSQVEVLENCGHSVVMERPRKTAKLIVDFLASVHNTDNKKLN
# Abhd11 = conditions: serine hydrolase panel, active compounds read low
# Ache = conditions: serine hydrolase panel, active compounds read low
# Fasn = conditions: serine hydrolase panel, active compounds read low
# Nceh1 = conditions: serine hydrolase panel, active compounds read low
# Lactb = conditions: serine hydrolase panel, active compounds read low
smiles,measurement,setting,value
CC[C@@]1(c2ccc(C)cc2)C(=O)N(C(=O)OC(C)C)N1C(=O)OC(C)C,SILAC ratio (treated/control),Bat5,1.02 (inactive)
same,SILAC ratio (treated/control),Abhd13,0.84 (inactive)
same,SILAC ratio (treated/control),Acot9,1.1 (inactive)
same,SILAC ratio (treated/control),Sec23ip,1.17 (inactive)
same,SILAC ratio (treated/control),Serhl,0.9 (inactive)
same,SILAC ratio (treated/control),Pafah1b3,1.06 (inactive)
same,SILAC ratio (treated/control),Qrsl1,0.96 (inactive)
same,SILAC ratio (treated/control),Htra2,0.98 (inactive)
same,SILAC ratio (treated/control),Acot7,1.05 (inactive)
same,SILAC ratio (treated/control),Pnpla7,1.01 (inactive)
same,SILAC ratio (treated/control),Ctsa,0.81 (inactive)
same,SILAC ratio (treated/control),Fam108a,1.16 (inactive)
same,SILAC ratio (treated/control),[1],1.06 (inactive)
same,SILAC ratio (treated/control),Fam108b1,1.05 (inactive)
same,SILAC ratio (treated/control),Lypla2,1.07 (inactive)
same,SILAC ratio (treated/control),Dpp7,0.97 (inactive)
same,SILAC ratio (treated/control),Abhd12,0.9 (inactive)
same,SILAC ratio (treated/control),Parl,0.96 (inactive)
same,SILAC ratio (treated/control),Lipe,1.13 (inactive)
same,SILAC ratio (treated/control),[2],1.01 (inactive)
same,SILAC ratio (treated/control),Apeh,1.07 (inactive)
same,SILAC ratio (treated/control),Pnpla6,1.32 (inactive)
same,SILAC ratio (treated/control),Faah,0.94 (inactive)
same,SILAC ratio (treated/control),Pafah1b2,1.06 (inactive)
same,SILAC ratio (treated/control),[3],1.14 (inactive)
same,SILAC ratio (treated/control),Ppt2,1.04 (inactive)
same,SILAC ratio (treated/control),Pla2g6,1.06 (inactive)
same,SILAC ratio (treated/control),Pnpla8,0.97 (inactive)
same,SILAC ratio (treated/control),[4],0.96 (inactive)
same,SILAC ratio (treated/control),Fam108c1,0.93 (inactive)
same,SILAC ratio (treated/control),Acot2,1 (inactive)
same,SILAC ratio (treated/control),[5],0.02
same,SILAC ratio (treated/control),Rbbp9,1.07 (inactive)
same,SILAC ratio (treated/control),Iah1,0.95 (inactive)
same,SILAC ratio (treated/control),Dpp9,1.08 (inactive)
same,SILAC ratio (treated/control),Prcp,0.94 (inactive)
same,SILAC ratio (treated/control),Pgap1,0.92 (inactive)
same,SILAC ratio (treated/control),Pme1,1.06 (inactive)
same,SILAC ratio (treated/control),Lyplal1,1.06 (inactive)
same,SILAC ratio (treated/control),Pla2g15,1 (inactive)
same,SILAC ratio (treated/control),Ddhd2,0.99 (inactive)
same,SILAC ratio (treated/control),Prepl,1.05 (inactive)
same,SILAC ratio (treated/control),Dpp8,1.48 (inactive)
same,SILAC ratio (treated/control),Esd,1.04 (inactive)
same,SILAC ratio (treated/control),[6],0.87 (inactive)
same,SILAC ratio (treated/control),Abhd11,1 (inactive)
same,SILAC ratio (treated/control),Ache,0.9 (inactive)
same,SILAC ratio (treated/control),Fasn,1.1 (inactive)
same,SILAC ratio (treated/control),Nceh1,1.03 (inactive)
same,SILAC ratio (treated/control),Lactb,0.85 (inactive)
